# According to the supplement of paper PMC10307832:
# Legend:
# Assay in all cases: relative viability (nuclei count vs DMSO), 5 days (fraction); higher = more cells survive
# NCI-H2085 = test system: NCI-H2085
# How it was run: (§1)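 The day after seeding in 1536-well plates, lung cancer cell lines were treated by pin tool with a single drug, or with a fixed anchor-drug dose together with five library-drug doses (not always all listed) in √10 steps. After 5 days, a combined fix-and-stain solution (final 0.05% Triton X-100, 1% formaldehyde, 1 ug/ml Hoechst) was added. Nuclei counted on 4× images gave relative viability as treated counts over vehicle counts, reported as the median of duplicate plates.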
# NCI-H2228 = test system: NCI-H2228
# How it was run: as §1
# LC-2-ad = test system: LC-2-ad
# How it was run: as §1
# UMC-11 = test system: UMC-11
# How it was run: as §1
# HCC-366 = test system: HCC-366
# How it was run: as §1
# LXF-289 = test system: LXF-289
# How it was run: as §1
# HCC-827 = test system: HCC-827
# How it was run: as §1
# HCC-15 = test system: HCC-15
# How it was run: as §1
# COR-L23 = test system: COR-L23
# How it was run: as §1
# NCI-H2009 = test system: NCI-H2009
# How it was run: as §1
# SK-MES-1 = test system: SK-MES-1
# How it was run: as §1
# NCI-H1666 = test system: NCI-H1666
# How it was run: as §1
# NCI-H1975 = test system: NCI-H1975
# How it was run: as §1
# NCI-H661 = test system: NCI-H661
# How it was run: as §1
# H3255 = test system: H3255
# How it was run: as §1
# NCI-H23 = test system: NCI-H23
# How it was run: as §1
# NCI-H2087 = test system: NCI-H2087
# How it was run: as §1
# PC-14 = test system: PC-14
# How it was run: as §1
# NCI-H1437 = test system: NCI-H1437
# How it was run: as §1
# PC-3 [JPC-3] = test system: PC-3 [JPC-3]
# How it was run: as §1
# LCLC-103H = test system: LCLC-103H
# How it was run: as §1
# ABC-1 = test system: ABC-1
# How it was run: as §1
compound,measurement,setting,value
CN1CCN(CCOc2cc(OC3CCOCC3)c3c(Nc4c(Cl)ccc5c4OCO5)ncnc3c2)CC1 [Saracatinib] + CS(=O)(=O)N1CCN(Cc2cc3nc(-c4cccc5[nH]ncc45)nc(N4CCOCC4)c3s2)CC1 [Pictilisib] (partner 1 µM),relative viability,NCI-H2085; first compound 0.02 µM,0.474
same,relative viability,NCI-H2085; first compound 0.2 µM,0.345
same,relative viability,NCI-H2085; first compound 0.6325 µM,0.481
same,relative viability,NCI-H2085; first compound 2 µM,0.377
same,relative viability,NCI-H2228; first compound 0.02 µM,0.385
same,relative viability,NCI-H2228; first compound 0.2 µM,0.206
same,relative viability,NCI-H2228; first compound 0.6325 µM,0.244
same,relative viability,NCI-H2228; first compound 2 µM,0.207
same,relative viability,LC-2-ad; first compound 0.02 µM,0.578
same,relative viability,LC-2-ad; first compound 0.6325 µM,0.443
same,relative viability,LC-2-ad; first compound 2 µM,0.362
same,relative viability,UMC-11; first compound 0.02 µM,0.691
same,relative viability,UMC-11; first compound 0.6325 µM,0.836
same,relative viability,UMC-11; first compound 2 µM,0.679
same,relative viability,HCC-366; first compound 0.02 µM,0.132
same,relative viability,HCC-366; first compound 0.2 µM,0.151
same,relative viability,HCC-366; first compound 0.6325 µM,0.107
same,relative viability,HCC-366; first compound 2 µM,0.103
same,relative viability,LXF-289; first compound 0.02 µM,0.715
same,relative viability,LXF-289; first compound 0.2 µM,0.731
same,relative viability,LXF-289; first compound 0.6325 µM,0.8
same,relative viability,LXF-289; first compound 2 µM,0.472
same,relative viability,HCC-827; first compound 0.02 µM,1.1
same,relative viability,HCC-827; first compound 0.2 µM,0.499
same,relative viability,HCC-827; first compound 0.6325 µM,0.501
same,relative viability,HCC-827; first compound 2 µM,0.323
same,relative viability,HCC-15; first compound 0.02 µM,0.797
same,relative viability,HCC-15; first compound 0.2 µM,0.585
same,relative viability,HCC-15; first compound 0.6325 µM,0.684
same,relative viability,HCC-15; first compound 2 µM,0.539
same,relative viability,COR-L23; first compound 0.02 µM,0.721
same,relative viability,COR-L23; first compound 0.2 µM,0.568
same,relative viability,COR-L23; first compound 0.6325 µM,0.75
same,relative viability,COR-L23; first compound 2 µM,0.675
same,relative viability,NCI-H2009; first compound 0.02 µM,0.759
same,relative viability,NCI-H2009; first compound 0.2 µM,0.465
same,relative viability,NCI-H2009; first compound 0.6325 µM,0.644
same,relative viability,NCI-H2009; first compound 2 µM,0.4
same,relative viability,SK-MES-1; first compound 0.02 µM,0.375
same,relative viability,SK-MES-1; first compound 0.2 µM,0.256
same,relative viability,SK-MES-1; first compound 0.6325 µM,0.267
same,relative viability,SK-MES-1; first compound 2 µM,0.183
same,relative viability,NCI-H1666; first compound 0.02 µM,0.493
same,relative viability,NCI-H1666; first compound 0.2 µM,0.413
same,relative viability,NCI-H1666; first compound 0.6325 µM,0.563
same,relative viability,NCI-H1666; first compound 2 µM,0.469
same,relative viability,NCI-H1975; first compound 0.02 µM,0.331
same,relative viability,NCI-H1975; first compound 0.6325 µM,0.298
same,relative viability,NCI-H1975; first compound 2 µM,0.174
same,relative viability,NCI-H661; first compound 0.02 µM,0.452
same,relative viability,NCI-H661; first compound 0.2 µM,0.271
same,relative viability,NCI-H661; first compound 0.6325 µM,0.314
same,relative viability,NCI-H661; first compound 2 µM,0.241
same,relative viability,H3255; first compound 0.02 µM,0.432
same,relative viability,H3255; first compound 0.2 µM,0.391
same,relative viability,H3255; first compound 0.6325 µM,0.352
same,relative viability,H3255; first compound 2 µM,0.156
same,relative viability,NCI-H23; first compound 0.02 µM,0.517
same,relative viability,NCI-H23; first compound 0.6325 µM,0.424
same,relative viability,NCI-H23; first compound 2 µM,0.35
same,relative viability,NCI-H2087; first compound 0.02 µM,0.963
same,relative viability,NCI-H2087; first compound 0.2 µM,0.567
same,relative viability,NCI-H2087; first compound 0.6325 µM,1.06
same,relative viability,NCI-H2087; first compound 2 µM,0.967
same,relative viability,PC-14; first compound 0.02 µM,0.593
same,relative viability,PC-14; first compound 0.2 µM,0.337
same,relative viability,PC-14; first compound 0.6325 µM,0.0893
same,relative viability,PC-14; first compound 2 µM,0.0627
same,relative viability,NCI-H1437; first compound 0.02 µM,0.416
same,relative viability,NCI-H1437; first compound 0.2 µM,0.418
same,relative viability,NCI-H1437; first compound 0.6325 µM,0.454
same,relative viability,NCI-H1437; first compound 2 µM,0.393
same,relative viability,PC-3 [JPC-3]; first compound 0.02 µM,0.782
same,relative viability,PC-3 [JPC-3]; first compound 0.2 µM,0.613
same,relative viability,PC-3 [JPC-3]; first compound 0.6325 µM,0.475
same,relative viability,PC-3 [JPC-3]; first compound 2 µM,0.395
same,relative viability,LCLC-103H; first compound 0.02 µM,0.547
same,relative viability,LCLC-103H; first compound 0.2 µM,0.671
same,relative viability,LCLC-103H; first compound 0.6325 µM,0.649
same,relative viability,LCLC-103H; first compound 2 µM,0.455
same,relative viability,ABC-1; first compound 0.02 µM,0.695
same,relative viability,ABC-1; first compound 0.2 µM,0.938
same,relative viability,ABC-1; first compound 0.6325 µM,0.85
same,relative viability,ABC-1; first compound 2 µM,0.822
CN1CCN(CCOc2cc(OC3CCOCC3)c3c(Nc4c(Cl)ccc5c4OCO5)ncnc3c2)CC1 [Saracatinib] + Cc1nc(NC(=O)N2CCC[C@H]2C(N)=O)sc1-c1ccnc(C(C)(C)C(F)(F)F)c1 [Alpelisib] (partner 2 µM),relative viability,NCI-H2085; first compound 0.02 µM,0.957
same,relative viability,NCI-H2085; first compound 0.2 µM,0.85
same,relative viability,NCI-H2085; first compound 0.6325 µM,0.91
same,relative viability,NCI-H2085; first compound 2 µM,0.888
same,relative viability,NCI-H2228; first compound 0.02 µM,0.734
same,relative viability,NCI-H2228; first compound 0.2 µM,0.562
same,relative viability,NCI-H2228; first compound 0.6325 µM,0.532
same,relative viability,NCI-H2228; first compound 2 µM,0.365
same,relative viability,LC-2-ad; first compound 0.02 µM,0.903
same,relative viability,LC-2-ad; first compound 0.6325 µM,0.882
same,relative viability,LC-2-ad; first compound 2 µM,0.691
same,relative viability,UMC-11; first compound 0.02 µM,0.99
same,relative viability,UMC-11; first compound 0.6325 µM,1.03
same,relative viability,UMC-11; first compound 2 µM,0.768
same,relative viability,HCC-366; first compound 0.02 µM,0.429
same,relative viability,HCC-366; first compound 0.6325 µM,0.272
same,relative viability,HCC-366; first compound 2 µM,0.152
same,relative viability,LXF-289; first compound 0.02 µM,1.03
same,relative viability,LXF-289; first compound 0.2 µM,0.908
same,relative viability,LXF-289; first compound 0.6325 µM,1.02
same,relative viability,LXF-289; first compound 2 µM,0.985
same,relative viability,HCC-827; first compound 0.02 µM,0.922
same,relative viability,HCC-827; first compound 0.2 µM,0.524
same,relative viability,HCC-827; first compound 0.6325 µM,0.195
same,relative viability,HCC-827; first compound 2 µM,0.157
same,relative viability,HCC-15; first compound 0.02 µM,0.889
same,relative viability,HCC-15; first compound 0.2 µM,0.641
same,relative viability,HCC-15; first compound 0.6325 µM,0.808
same,relative viability,HCC-15; first compound 2 µM,0.759
same,relative viability,COR-L23; first compound 0.02 µM,0.755
same,relative viability,COR-L23; first compound 0.2 µM,0.621
same,relative viability,COR-L23; first compound 0.6325 µM,0.591
same,relative viability,COR-L23; first compound 2 µM,0.603
same,relative viability,NCI-H2009; first compound 0.02 µM,1.16
same,relative viability,NCI-H2009; first compound 0.2 µM,1.14
same,relative viability,NCI-H2009; first compound 0.6325 µM,1.01
same,relative viability,NCI-H2009; first compound 2 µM,0.961
same,relative viability,SK-MES-1; first compound 0.02 µM,0.713
same,relative viability,SK-MES-1; first compound 0.2 µM,0.77
same,relative viability,SK-MES-1; first compound 0.6325 µM,0.76
same,relative viability,SK-MES-1; first compound 2 µM,0.644
same,relative viability,NCI-H1666; first compound 0.02 µM,1.22
same,relative viability,NCI-H1666; first compound 0.2 µM,0.936
same,relative viability,NCI-H1666; first compound 0.6325 µM,1.2
same,relative viability,NCI-H1666; first compound 2 µM,0.837
same,relative viability,NCI-H1975; first compound 0.02 µM,0.671
same,relative viability,NCI-H1975; first compound 0.6325 µM,0.585
same,relative viability,NCI-H1975; first compound 2 µM,0.367
same,relative viability,NCI-H661; first compound 0.02 µM,0.838
same,relative viability,NCI-H661; first compound 0.2 µM,0.329
same,relative viability,NCI-H661; first compound 0.6325 µM,0.357
same,relative viability,NCI-H661; first compound 2 µM,0.377
same,relative viability,H3255; first compound 0.02 µM,0.624
same,relative viability,H3255; first compound 0.2 µM,0.556
same,relative viability,H3255; first compound 0.6325 µM,0.366
same,relative viability,H3255; first compound 2 µM,0.166
same,relative viability,NCI-H23; first compound 0.02 µM,0.616
same,relative viability,NCI-H23; first compound 0.6325 µM,0.752
same,relative viability,NCI-H23; first compound 2 µM,0.526
same,relative viability,NCI-H2087; first compound 0.02 µM,1.13
same,relative viability,NCI-H2087; first compound 0.2 µM,0.934
same,relative viability,NCI-H2087; first compound 0.6325 µM,1.41
same,relative viability,NCI-H2087; first compound 2 µM,1.04
same,relative viability,PC-14; first compound 0.02 µM,0.996
same,relative viability,PC-14; first compound 0.2 µM,0.681
same,relative viability,PC-14; first compound 0.6325 µM,0.46
same,relative viability,PC-14; first compound 2 µM,0.172
same,relative viability,NCI-H1437; first compound 0.02 µM,0.987
same,relative viability,NCI-H1437; first compound 0.2 µM,0.894
same,relative viability,NCI-H1437; first compound 0.6325 µM,0.845
same,relative viability,NCI-H1437; first compound 2 µM,0.895
same,relative viability,PC-3 [JPC-3]; first compound 0.02 µM,0.998
same,relative viability,PC-3 [JPC-3]; first compound 0.2 µM,0.956
same,relative viability,PC-3 [JPC-3]; first compound 0.6325 µM,0.876
same,relative viability,PC-3 [JPC-3]; first compound 2 µM,0.53
same,relative viability,LCLC-103H; first compound 0.02 µM,0.972
same,relative viability,LCLC-103H; first compound 0.2 µM,0.831
same,relative viability,LCLC-103H; first compound 0.6325 µM,0.899
same,relative viability,LCLC-103H; first compound 2 µM,0.893
same,relative viability,ABC-1; first compound 0.02 µM,0.854
same,relative viability,ABC-1; first compound 0.2 µM,1.06
same,relative viability,ABC-1; first compound 0.6325 µM,0.981
same,relative viability,ABC-1; first compound 2 µM,0.857
